Values of other authors, collected in patent EP3305282A2, “COMPOSITION OF PRANLUKAST-CONTAINING SOLID PREPARATION WITH IMPROVED BIOAVAILABILITY AND METHOD FOR PREPARING SAME” (Sama Pharm Co., Ltd., priority 2015, dated 2016).

Conditions: pranlukast drug substance, BCS Class II

## O=C(Nc1cccc2c(=O)cc(-c3nnn[nH]3)oc12)c1ccc(OCCCCc2ccccc2)cc1 [Pranlukast, 4-oxo-8-[4-(4-phenylbutoxy)benzoylamino]-2-(tetrazol-5-yl)-4H-1-benzopyran hemihydrate]
  solubility: 1.2 µg/mL
